Patent publication US20140005163A1 (NOVARTIS AG, priority 2010, published 2014)

Columns and labels:
[1] = test system: PKB Ser473 phosphorylation in Rat1-myr-HA-p110 alpha cells; assay: Reverse protein array assay, PKB Ser473 phosphorylation in Rat1-myr-p110 alpha cells; assay type: cell-based; conditions: 0.5 h, pAkt Ser473, 30 minutes compound incubation, read-out: p-PKB IC50
Summary of the method: (§1)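 After at least 20 h of culture, the p110 isoform-transfected Rat1 lines receive compound in an 8-step dilution series, keeping DMSO at 0.2%, for 30 minutes. Cells are then lysed and lysates arrayed on chips for fluorescence detection of Ser473-phosphorylated PKB.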

mTOR = target: T1, mTOR (Homo sapiens, UniProt P42345); assay: Biochemical assay for m-TOR by TR-FRET; conditions: 8 μM ATP, 400 nM GFP-4EBP1, 0.5 nM mTOR
T1 construct: purchased Invitrogen Corporation (Carlsbad/CA, USA) PV4753
Summary of the method: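 TR-FRET read-out: Tb-labelled anti-p4EBP1 pThr46 antibody (0.5 nM), added in EDTA to stop the reaction, detects phosphorylated GFP-4EBP1 after 15 min. Kinase step used 0.5 nM mTOR, 400 nM substrate, 8 μM ATP, MnCl2-containing HEPES buffer pH 7.5, room temperature.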

[2] = test system: PKB Ser473 phosphorylation in Rat1-myr-HA-p110 beta cells; assay: Reverse protein array assay, PKB Ser473 phosphorylation in Rat1-myr-p110 beta cells; assay type: cell-based; conditions: 0.5 h, pAkt Ser473, 30 minutes incubation, read-out: p-PKB IC50
Summary of the method: as §1

[3] = test system: PKB Ser473 phosphorylation in Rat1-myr-HA-p110 delta cells; assay: Reverse protein array assay, PKB Ser473 phosphorylation in Rat1-myr-p110 delta cells; assay type: cell-based; conditions: read-out: p-PKB IC50
Summary of the method: as §1

T1 sequence (P42345 1360-2549 limits assumed): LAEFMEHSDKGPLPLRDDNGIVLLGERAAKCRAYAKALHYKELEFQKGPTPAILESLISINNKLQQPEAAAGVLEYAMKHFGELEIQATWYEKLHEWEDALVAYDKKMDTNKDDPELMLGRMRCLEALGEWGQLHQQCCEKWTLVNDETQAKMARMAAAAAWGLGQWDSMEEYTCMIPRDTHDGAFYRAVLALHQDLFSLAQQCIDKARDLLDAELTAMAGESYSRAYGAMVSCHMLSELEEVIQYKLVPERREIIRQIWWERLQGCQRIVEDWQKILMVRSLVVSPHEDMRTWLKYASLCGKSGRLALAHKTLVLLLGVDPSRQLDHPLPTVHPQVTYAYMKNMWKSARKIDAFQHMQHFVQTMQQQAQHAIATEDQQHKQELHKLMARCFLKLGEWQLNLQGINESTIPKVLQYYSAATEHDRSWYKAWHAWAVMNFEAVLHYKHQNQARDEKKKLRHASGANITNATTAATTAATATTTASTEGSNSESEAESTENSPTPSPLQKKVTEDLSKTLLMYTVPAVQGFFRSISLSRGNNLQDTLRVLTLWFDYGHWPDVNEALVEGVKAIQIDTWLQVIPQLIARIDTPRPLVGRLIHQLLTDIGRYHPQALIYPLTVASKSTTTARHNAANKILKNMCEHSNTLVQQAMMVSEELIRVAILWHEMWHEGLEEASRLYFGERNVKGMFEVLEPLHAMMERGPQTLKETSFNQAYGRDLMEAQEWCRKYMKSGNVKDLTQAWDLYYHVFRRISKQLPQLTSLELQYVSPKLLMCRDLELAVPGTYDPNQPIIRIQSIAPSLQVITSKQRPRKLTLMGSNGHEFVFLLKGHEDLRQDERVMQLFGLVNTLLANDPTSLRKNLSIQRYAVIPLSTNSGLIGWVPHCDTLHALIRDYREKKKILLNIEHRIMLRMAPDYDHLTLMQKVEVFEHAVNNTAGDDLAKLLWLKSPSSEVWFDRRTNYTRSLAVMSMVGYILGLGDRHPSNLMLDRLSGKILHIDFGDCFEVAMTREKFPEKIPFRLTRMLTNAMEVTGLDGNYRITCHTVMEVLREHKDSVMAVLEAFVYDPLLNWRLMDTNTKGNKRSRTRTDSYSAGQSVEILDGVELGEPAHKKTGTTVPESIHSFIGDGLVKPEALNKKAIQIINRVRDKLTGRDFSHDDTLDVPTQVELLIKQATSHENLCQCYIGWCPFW

SMILES: CCn1cc(-n2c(=O)n(C)c3cnc4ccc(-c5cnc(NC)c(Cl)c5)cc4c32)c(C)n1 [Example 146.2, 8-(5-Chloro-6-methylamino-pyridin-3-yl)-1-(1-ethyl-3-methyl-1H-pyrazol-4-yl)-3-methyl-1,3-dihydro-imidazo[4,5-c]quinolin-2-one]
- IC50 [1]: < 5 nM
- IC50 (mTOR): 20 nM
- IC50 [2]: 11 nM
- IC50 [3]: 18 nM

SMILES: Cc1nn(C(C)C)cc1-n1c(=O)n(C)c2cnc3ccc(-c4cnc(F)c(N)c4)cc3c21 [Example 149.1, 8-(5-Amino-6-fluoro-pyridin-3-yl)-1-(1-isopropyl-3-methyl-1H-pyrazol-4-yl)-3-methyl-1,3-dihydro-imidazo[4,5-c]quinolin-2-one]
- IC50 [1]: 31 nM
- IC50 (mTOR): 79 nM
- IC50 [2]: 66 nM
- IC50 [3]: 118 nM

SMILES: Cc1nn(C)cc1-n1c(=O)n(C)c2cnc3ccc(-c4cnc(F)c(N)c4)cc3c21 [Example 149.2, 8-(5-Amino-6-fluoro-pyridin-3-yl)-1-(1,3-dimethyl-1H-pyrazol-4-yl)-3-methyl-1,3-dihydro-imidazo[4,5-c]quinolin-2-one]
- IC50 [1]: 80 nM
- IC50 (mTOR): 39 nM
- IC50 [2]: 68 nM
- IC50 [3]: 56 nM

SMILES: CCn1cc(-n2c(=O)n(C)c3cnc4ccc(-c5cnc(F)c(NC)c5)cc4c32)c(C)n1 [Example 150.1, 1-(1-Ethyl-3-methyl-1H-pyrazol-4-yl)-8-(6-fluoro-5-methylamino-pyridin-3-yl)-3-methyl-1,3-dihydro-imidazo[4,5-c]quinolin-2-one]
- IC50 [1]: 9 nM
- IC50 (mTOR): 17 nM
- IC50 [2]: 11 nM
- IC50 [3]: 21 nM

SMILES: CCNc1cc(-c2ccc3ncc4c(c3c2)n(-c2c(C)nn(C)c2C)c(=O)n4C)cnc1Cl [Example 153.1, 8-(6-Chloro-5-ethylamino-pyridin-3-yl)-3-methyl-1-(1,3,5-trimethyl-1H-pyrazol-4-yl)-1,3-dihydro-imidazo[4,5-c]quinolin-2-one]
- IC50 [1]: 19 nM
- IC50 (mTOR): 98 nM
- IC50 [2]: 17 nM
- IC50 [3]: 19 nM

SMILES: CCNc1cc(-c2ccc3ncc4c(c3c2)n(-c2cn(C(C)C)nc2C)c(=O)n4C)cnc1CO [Example 155.3, 8-(5-Ethylamino-6-hydroxymethyl-pyridin-3-yl)-1-(1-isopropyl-3-methyl-1H-pyrazol-4-yl)-3-methyl-1,3-dihydro-imidazo[4,5-c]quinolin-2-one]
- IC50 [1]: < 5 nM
- IC50 (mTOR): 5 nM
- IC50 [2]: < 5 nM
- IC50 [3]: 9 nM

SMILES: CCNc1cc(-c2ccc3ncc4c(c3c2)n(-c2c(C)nn(C)c2C)c(=O)n4C)cnc1CO [Example 155.4, 8-(5-Ethylamino-6-hydroxymethyl-pyridin-3-yl)-3-methyl-1-(1,3,5-trimethyl-1H-pyrazol-4-yl)-1,3-dihydro-imidazo[4,5-c]quinolin-2-one]
- IC50 [1]: 88 nM
- IC50 (mTOR): 22 nM
- IC50 [2]: 47 nM
- IC50 [3]: 59 nM

SMILES: CCNc1cc(-c2ccc3ncc4c(c3c2)n(-c2cn(CC)nc2C)c(=O)n4C)cnc1COC [Example 157, 8-(5-Ethylamino-6-methoxymethyl-pyridin-3-yl)-1-(1-ethyl-3-methyl-1H-pyrazol-4-yl)-3-methyl-1,3-dihydro-imidazo[4,5-c]quinolin-2-one]
- IC50 [1]: < 5 nM
- IC50 (mTOR): 10 nM
- IC50 [2]: 8 nM
- IC50 [3]: 12 nM

SMILES: CNc1cc(-c2ccc3ncc4c(c3c2)n(-c2cn(C)nc2C)c(=O)n4C)cnc1COC [Example 159, 1-(1,3-Dimethyl-1H-pyrazol-4-yl)-8-(6-methoxymethyl-5-methylamino-pyridin-3-yl)-3-methyl-1,3-dihydro-imidazo[4,5-c]quinolin-2-one]
- IC50 [1]: 7 nM
- IC50 (mTOR): 12 nM
- IC50 [2]: 8 nM
- IC50 [3]: 24 nM

SMILES: CCNc1cc(-c2ccc3ncc4c(c3c2)n(-c2cn(C)nc2C)c(=O)n4C)cnc1CC [Example 161, 1-(1,3-Dimethyl-1H-pyrazol-4-yl)-8-(6-ethyl-5-ethylamino-pyridin-3-yl)-3-methyl-1,3-dihydro-imidazo[4,5-c]quinolin-2-one]
- IC50 [1]: < 5 nM
- IC50 (mTOR): < 3 nM
- IC50 [2]: < 5 nM
- IC50 [3]: < 5 nM
